The test system of one assay is PC-9. Nature of the assay: Antiproliferative activity against human PC-9 cells assessed as inhibition of cell growth measured after 72 by Cell titre-glo assay. The class given is functional, cell-based.
Another assay relates to A2780. Nature of the assay: Antiproliferative activity against human A2780 cells assessed as inhibition of cell growth measured after 72 by Cell titre-glo assay. The class given is functional, cell-based.
A further assay concerns U-937. Description: Antiproliferative activity against human U-937 cells assessed as inhibition of cell growth measured after 72 by Cell titre-glo assay. The class given is functional, cell-based.
For a further assay, the system named is Raji. Nature of the assay: Antiproliferative activity against human Raji cells assessed as inhibition of cell growth measured after 72 by Cell titre-glo assay. The class given is functional, cell-based.
A further assay deals with Daudi. Nature of the assay: Antiproliferative activity against human Daudi cells assessed as inhibition of cell growth measured after 72 by Cell titre-glo assay. The class given is functional, cell-based.
A further assay has as its system PC-3. Description: Antiproliferative activity against human PC-3 cells assessed as inhibition of cell growth measured after 72 by Cell titre-glo assay. The class given is functional, cell-based.
Another assay deals with HT-29. Description: Antiproliferative activity against human HT-29 cells assessed as inhibition of cell growth measured after 72 by Cell titre-glo assay. The class given is functional, cell-based.
For the next assay, the system named is NB-4. Nature of the assay: Antiproliferative activity against human NB4 cells assessed as inhibition of cell growth measured after 72 by Cell titre-glo assay. The class given is functional, cell-based.
Assay [1] deals with Mycolicibacterium smegmatis. Nature of the assay: Antibacterial activity against Mycolicibacterium smegmatis ATCC607 assessed as inhibition of bacterial growth measured after 3 days by broth microdilution assay. Conditions: ATCC607, 72 h, time 3 day. The class given is functional.
Assay [2] concerns Helicobacter pylori. Nature of the assay: Antibacterial activity against Helicobacter pylori 26695 assessed as inhibition of bacterial growth measured after 3 days by broth microdilution assay. The class given is functional. Conditions: Helicobacter pylori, 26695, 72 h; time 3 day.
Assay [3] has as its system Helicobacter pylori. Nature of the assay: Antibacterial activity against Helicobacter pylori G27 assessed as inhibition of bacterial growth measured after 3 days by broth microdilution assay. Conditions: G27, 72 h, time 3 day. The class given is functional. A general note: Broth dilution looks for growth in wells or tubes with falling amounts of substance.

pIC50: −log10 of the molar value. In brackets after ≈: the same amount, converted by molar mass.

As usually defined, the pIC50 is the IC50 on a negative log10 scale, so that one unit is a factor of ten. On to `CC(C)CCC(=O)N[C@@H](CC(C)C)C(=O)N[C@H](CCCNC(=N)N)C(=O)N[C@@H]1C(=O)N[C@@H]([C@@H](C)C(C)C)C(=O)NCC(=O)N[C@@H]([C@H](C)C(C)C)C(=O)O[C@@H]1C`, for which the pIC50 with PC-9, in the assay with A2780, with U-937, in the assay with Raji, with Daudi and with PC-3 was below 4.70 throughout. Further, the negative logarithm of the IC50 (pIC50) with HT-29 and in the assay on NB-4 was below 4.70 throughout.

As usually defined, the MIC is the lowest concentration that inhibits growth of the organism. As for `CC(C)CCCCC(=O)N[C@@H](CC(C)C)C(=O)N[C@H](CCCNC(=N)N)C(=O)N[C@@H]1C(=O)N[C@@H]([C@@H](C)C(C)C)C(=O)NCC(=O)N[C@@H]([C@H](C)C(C)C)C(=O)O[C@@H]1C`, the minimal inhibitory concentration (MIC) (in assay [1]; in the assay on Helicobacter pylori [2]; with Helicobacter pylori [3]) was 32 µg/mL (≈ 39.6 µM) in each case. Further, the pIC50 in the assay with PC-9, in the assay with A2780, in the assay on U-937, in the assay with Raji, in the assay on Daudi and in the assay with PC-3 was below 4.70 throughout. Also, the negative logarithm of the IC50 (pIC50) with HT-29 and with NB-4 was below 4.70 throughout.

Take `CC(C)C[C@H](NC(=O)Cc1ccccc1)C(=O)N[C@H](CCCNC(=N)N)C(=O)N[C@@H]1C(=O)N[C@@H]([C@@H](C)C(C)C)C(=O)NCC(=O)N[C@@H]([C@H](C)C(C)C)C(=O)O[C@@H]1C`: the pIC50 with PC-9, with A2780, with U-937, in the assay with Raji, with Daudi and in the assay with PC-3 was below 4.70 throughout. Besides, the pIC50 in the assay on HT-29 and in the assay on NB-4 was below 4.70 in each case.

The values above are taken from ChEMBL document CHEMBL5360588, “LC-MS-Guided Isolation of Cyanogripeptides A-C, Cyclolipopeptides with β-Methyl-Leucine Residues, from an Actinoalloteichus cyanogriseus LHW52806” (J Nat Prod, 2023).
